Measurements published in publication PMC4131897 (Biochemistry, 2014).
Numbering of substitutions follows the chain as printed.

Legend:
Assay in all cases: intrinsic tryptophan fluorescence quenching
Assay type in all cases: binding
[1] = target: T1, BjPutA (proline utilization A) (Bradyrhizobium diazoefficiens, UniProt Q89E26, D778Y)
T1 sequence (Q89E26 1-999 D778Y): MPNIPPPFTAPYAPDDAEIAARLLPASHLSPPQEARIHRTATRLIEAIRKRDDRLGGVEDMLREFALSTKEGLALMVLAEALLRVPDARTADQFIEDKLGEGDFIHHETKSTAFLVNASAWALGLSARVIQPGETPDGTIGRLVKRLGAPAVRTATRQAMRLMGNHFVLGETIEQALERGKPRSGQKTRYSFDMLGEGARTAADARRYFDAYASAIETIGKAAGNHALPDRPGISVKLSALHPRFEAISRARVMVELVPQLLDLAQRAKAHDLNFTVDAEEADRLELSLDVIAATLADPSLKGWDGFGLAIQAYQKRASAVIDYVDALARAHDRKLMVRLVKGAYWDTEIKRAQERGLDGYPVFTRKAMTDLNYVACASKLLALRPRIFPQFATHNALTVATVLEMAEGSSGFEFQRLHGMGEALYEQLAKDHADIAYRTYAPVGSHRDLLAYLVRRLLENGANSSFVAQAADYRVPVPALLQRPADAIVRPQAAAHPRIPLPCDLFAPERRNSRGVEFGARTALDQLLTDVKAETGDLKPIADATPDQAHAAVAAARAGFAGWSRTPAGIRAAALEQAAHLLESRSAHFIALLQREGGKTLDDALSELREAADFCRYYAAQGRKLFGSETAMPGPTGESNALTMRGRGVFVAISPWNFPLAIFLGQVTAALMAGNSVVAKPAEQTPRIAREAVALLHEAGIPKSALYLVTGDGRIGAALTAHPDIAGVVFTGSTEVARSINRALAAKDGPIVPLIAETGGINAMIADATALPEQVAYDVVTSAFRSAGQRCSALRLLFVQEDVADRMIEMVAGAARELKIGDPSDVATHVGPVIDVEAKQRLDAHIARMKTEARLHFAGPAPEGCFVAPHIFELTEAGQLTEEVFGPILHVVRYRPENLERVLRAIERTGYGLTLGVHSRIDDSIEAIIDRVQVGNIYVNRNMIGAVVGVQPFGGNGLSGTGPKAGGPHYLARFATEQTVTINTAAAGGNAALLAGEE

[2] = target: T2, BjPutA (proline utilization A) (Bradyrhizobium diazoefficiens, UniProt Q89E26, T348Y)
T2 sequence (Q89E26 1-999 T348Y): T1 sequence (Q89E26 1-999 D778Y) with T348Y, Y778D

[3] = target: T3, BjPutA (proline utilization A) (Bradyrhizobium diazoefficiens, UniProt Q89E26, S607Y)
T3 sequence (Q89E26 1-999 S607Y): T1 sequence (Q89E26 1-999 D778Y) with S607Y, Y778D

NC(=O)c1ccc[n+]([C@@H]2O[C@H](COP(=O)(O)OP(=O)(O)OC[C@H]3O[C@@H](n4cnc5c(N)ncnc54)[C@H](O)[C@@H]3O)[C@@H](O)[C@H]2O)c1 [NAD^+]
Kd [1]: 0.67 ± 0.04 µM
Kd [2]: 0.75 ± 0.06 µM
Kd [3]: 1 ± 0.04 µM
